No end group written: not given here.
How the values were obtained:
[1] = test system: β2ARs in permeabilized A431 cells; test: Desensitization of β2ARs in permeabilized A431 cells; assay type: cell-based, human; conditions: 100 μM
Description: Permeabilization of cells was accomplished as follows. Human epidermoid carcinoma A431 cells were grown to about 95% confluence in Dulbecco's modified Eagle's medium supplemented with 10% fetal calf serum. Cells were harvested with collagenase, washed three times with calcium-free phosphate-buffered saline (PBS), then washed twice in 150 mM potassium glutamate/10 mM Hepes/5 mM EGTA/7 mM MgCl2, pH 7.1 (KG buffer), and finally resuspended in KG buffer supplemented with 5 mM glucose and 2 mM ATP (KG-A buffer) at a density of 4×10^7 cells per ml.
At 4×10^7 cells per ml, about 0.015% digitonin was necessary to achieve permeabilization of >95% cells as assessed by staining with trypan blue. In all experiments, digitonin was added stepwise until >95% of the cells were trypan blue positive.

βAR kinase [2] = biological target: T1, βAR kinase (Bos taurus, UniProt P21146); test: Phosphorylation of purified reconstituted β2ARs by purified βAR kinase (Example II); assay type: biochemical, bovine; conditions: 100 μM
T1 construct: βAR kinase was purified from bovine cerebral cortex; from tissue; host or cells: bovine cerebral cortex
T1 sequence (P21146 1-689): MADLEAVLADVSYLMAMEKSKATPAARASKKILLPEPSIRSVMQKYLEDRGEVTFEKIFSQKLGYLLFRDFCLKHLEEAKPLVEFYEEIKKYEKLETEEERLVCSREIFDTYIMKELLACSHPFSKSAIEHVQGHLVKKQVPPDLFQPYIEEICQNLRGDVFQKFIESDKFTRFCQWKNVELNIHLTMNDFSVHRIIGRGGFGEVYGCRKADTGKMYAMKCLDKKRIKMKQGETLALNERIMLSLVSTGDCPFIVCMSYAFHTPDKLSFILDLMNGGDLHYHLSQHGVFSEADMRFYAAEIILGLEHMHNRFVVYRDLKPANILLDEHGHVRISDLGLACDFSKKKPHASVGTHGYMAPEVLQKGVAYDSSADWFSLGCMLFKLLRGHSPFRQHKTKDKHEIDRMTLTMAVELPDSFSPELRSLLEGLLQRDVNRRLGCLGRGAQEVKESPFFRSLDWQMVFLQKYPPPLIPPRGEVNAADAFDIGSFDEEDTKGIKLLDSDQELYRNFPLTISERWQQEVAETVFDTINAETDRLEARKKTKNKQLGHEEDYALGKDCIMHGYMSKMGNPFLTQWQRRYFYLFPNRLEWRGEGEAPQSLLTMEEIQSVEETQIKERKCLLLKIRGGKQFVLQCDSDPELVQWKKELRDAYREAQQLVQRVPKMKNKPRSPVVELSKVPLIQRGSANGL
Description: FIG. 7. […] (Inset) Relevant section of a representative autoradiogram. Data are means±SEM of three independent experiments. […] Desensitization was measured as the percent loss of stimulation by 10 μM (−)-isoproterenol of adenylyl cyclase activity in membranes. […] Data are means±SEM of four independent experiments.
Purified β2ARs were inserted into phosphatidylcholine vesicles by chromatography on Extracti-gel, followed by polyethylene glycol treatment and centrifugation at 280,000×g for 90 min (Cerione et al (1984) Biochemistry 23:4519-4525). Phosphorylation of the reconstituted receptors by purified βAR kinase was done in the presence of 50 μM (−)-isoproterenol as described (Benovic et al (1987) J. Biol. Chem. 262:9026-9032). Subsequently, the samples were subjected to sodium dodecyl sulfate polyacrylamide gel electrophoresis on 10% gels (Laemmli (1970) Nature 227:680-685). The phosphorylated β2ARs were visualized by autoradiography, and the corresponding bands were cut out and their content of ^32P quantified.

βAR kinase [3] = biological target: T1, βAR kinase; test: Inhibition of β2AR phosphorylation by βAR kinase by synthetic peptides (Example III); assay type: biochemical, bovine
Description: FIG. 13. Inhibition of β2AR phosphorylation by synthetic peptides. Reconstituted β2AR (˜0.4 pmol) was incubated for 30 min at 30° with purified βAR kinase (˜30 ng) in the presence of 50 mM Tris-HCl, pH 7.5, 2 mM EDTA, 10 mM NaCl, 5 mM MgCl2, 5 mM sodium phosphate, 50 μM (−)-isoproterenol and 0.10 mM [γ^32P]ATP (2.0 cpm/fmol). Synthetic β2AR peptides were varied from 0 to 1 mM and included CI (Δ), CII (▴), CIII-2 (◯) and CT-1 (●). Reactions were stopped by the addition of […]. ^32P-labeled receptor was determined by cutting and counting the dried gel following autoradiography.
The β2-adrenergic receptor from hamster lung was purified to apparent homogeneity by sequential affinity and high performance liquid chromatography as described (Benovic et al (1984) Biochemistry 23:4510-4518). The purified receptor was reinserted into phosphatidylcholine vesicles as previously described (Cerione et al (1983) Nature 306:562-566). The protein-lipid pellets were resuspended in 20 mM Tris-HCl, pH 7.2, 2 mM EDTA and used as a substrate for the βAR kinase.
(§1) βAR kinase was purified from bovine cerebral cortex by modification of a previously described procedure (Benovic et al (1987) J. Biol. Chem. 262:9026-9032). Briefly, 250 g of bovine cortex was homogenized and the resulting high speed supernatant fraction was precipitated with 13-26% ammonium sulfate. This material was initially chromatographed on an Ultrogel AcA34 column equilibrated with 5 mM Tris-HCl, pH 7.5, 2 mM EDTA, 5 μg/ml leupeptin, 5 μg/ml pepstatin, 15 μg/ml benzamidine, 0.2 mM phenylmethyl sulfonyl fluoride (buffer A). The peak activity was diluted 1:1 with buffer A containing 0.02% triton X-100 and applied to a DEAE Sephacel column. Elution was accomplished with a 0-80 mM NaCl gradient in buffer A containing triton X-100. The peak activity was then applied directly to a CM Fractogel column and eluted with a 0-100 mM NaCl gradient in buffer A containing triton X-100. The purified kinase was stored at 4° C.
The inhibition of substrate phosphorylation by βAR kinase in the presence of synthetic peptides was assayed as follows. Reconstituted βAR (0.2-1 pmol/inclubation) was incubated with βAR kinase (10-30 ng) in a buffer containing 50 mM Tris-HCl, pH 7.5, 2 mM EDTA, 10 mM NaCl, 5 mM MgCl2, 5 mM sodium phosphate, 50 μM (−)-isoproterenol, 0.10 mM [γ-^32P]ATP (1-3 cpm/fmol) at 30° C. for 30 min. Synthetic β2AR peptides were varied in concentration from 0 to 2 mM. Reactions were quenched by the addition of SDS sample buffer followed by gel electrophoresis. In some experiments urea treated rod outer segments (Wilden et al (1982) Biochemistry 21:3014-3022; Shichi et al (1978) J. Biol. Chem. 253:7040-7046) were used as the substrate for βAR kinase. To further define the specificity of the peptide inhibition, phosvitin, casein (see Example I) and the synthetic peptides CT-2 and CT-3 were used as substrates for βAR kinase.
SDS polyacrylamide gel electrophoresis was performed by the method of Laemmli (Nature (1970) 227:[…]) using 10 or 15% homogeneous slab gels. SDS sample buffer contained 8% SDS, 10% glycerol, 5% β-mercaptoethanol, 25 mM Tris-HCl, pH 6.5 and 0.003% bromphenol blue. SDS urea polyacrylamide gel electrophoresis was carried out using 6.5 M urea, 0.1% SDS, 100 mM H3PO4, pH 6.8 with Tris-HCl and 9% acrylamide (Swank et al (1971) Anal. Biochem. 39:462). SDS urea sample buffer contained 1% SDS, 8M urea, 10 mM H3PO4, pH 6.8 with Tris-HCl, 1% β-mercaptoethanol and 0.003% bromphenol blue.

βAR kinase [4] = biological target: T1, βAR kinase; test: Phosphorylation of β2AR and synthetic β2AR peptides by βAR kinase (substrate kinetics); assay type: biochemical, bovine; conditions: for phosphorylation by βAR kinase: FIG. 10; for Ratio (Vmax/Km relative to β2AR + ISO): substrate of βAR kinase
Description: FIG. 11. Kinetic parameters of the βAR kinase for β2AR. Reconstituted β2AR (0.05-0.3 μM) was incubated for 15 min at 30° C. with purified βAR kinase (˜30 ng) in the presence (◯) or absence (●) of 50 μM (−)-isoproterenol. Reactions were stopped by the addition of SDS sample buffer before electrophoresis on a 10% SDS polyacrylamide gel. ^32P-labeled receptor was determined by cutting and counting the dried gel following […] autoradiography.
FIG. 12. Kinetic parameters of the βAR kinase for synthetic peptides CT-2 and CT-3. The synthetic β2AR peptides CT-2 (0.6-3.3 mM;Δ) and CT-3 (0.6-4.3 mM; ▴) were incubated for 60 min at 30° C. with purified βAR kinase (˜30 ng). Reactions were stopped by the addition of SDS urea sample buffer before electrophoresis on a 9% SDS urea polyacrylamide gel. ^32P-labeled peptide was determined by cutting and counting the gel following autoradiography.
as §1
Phosphorylation of βAR was accomplished by incubating reconstituted βAR (0.5-5 pmol/incubation) with βAR kinase (10-50 ng) in a buffer containing 20 mM Tris-HCl, pH 7.5, 2 mM EDTA, 10 mM NaCl, 5 mM MgCl2, 5 mM sodium phosphate, 0.5 mM ascorbic acid, 0.15 mM [γ-^32P]ATP (1-5 cpm/fmol) at 30° C. for the indicated time (see Figures indicated below and corresponding description). Some incubations also contained 50 μM (−)-isoproterenol. Incubations were stopped by the addition of 50 μl of SDS sample buffer followed by electrophoresis on 10% homogeneous polyacrylamide gels. Phosphorylated βAR was visualized by autoradiography and the corresponding bands were excised and counted to determine the pmol of phosphate incorporated.
Synthetic βAR peptides were phosphorylated as follows by βAR kinase. […] Following autoradiography the phosphorylated peptides were excised and counted to determine the amount of phosphate incorporated. […]

inhibition at 100 µM (βAR kinase [2]) [%]	inhibition of β2AR phosphorylation (βAR kinase [3]; tested at ˜0.5 mM)	phosphorylation by βAR kinase (βAR kinase [4])	Ratio (Vmax/Km relative to β2AR + ISO) (βAR kinase [4])	IC50 (βAR kinase [3]; hamster β2AR peptides, ND = no significant inhibition at ˜500 μM, read-out: IC50 (μM), inhibition of β2AR phosphorylation by βAR kinase) [µM]	Sequence	Inhibition of Desensitization, % [1] [%]
0	–	–	–	–	AKFERLQTVTN [β2AR-(59-69)]	3 ± 12
–	do not inhibit	are phosphorylated by βAR kinase	1.3 × 10^−6	–	QGTVPSLSLDSQGRNCSTNDSPL [CT-3 (396-418)]	–
–	–	are phosphorylated by βAR kinase	2.3 × 10^−6	142	GYSSNSNGKTDYMGEASGCQLGQEKESER [CT-2 (353-381)]	–
